{
  "source": "patent US6455558B1",
  "about": "“Biocide composition and use” (Avecia Limited, priority 1998, dated 2002)",
  "system": "mixed inoculum of Aureobasidium pullulans, Fusarium solani, Penicillium funicularum, Scopulariopsis brevicaulis and Streptoverticillium waksmanii",
  "assay": "Soil burial test of plasticised PVC strips containing biocide: weight loss after 20 weeks",
  "note": "Where “and” joins values, the source holds several entries; their conditions need not be identical. Equal entries are not always repeated.",
  "data": [
    {"compound": "Zinc Omadine [ZO]", "values": [
      {"measurement": "Actual % Weight Loss", "value": "4.011% and 3.557% and 3.318% and 2.179%"}
    ]},
    {"compound": "CCCCCCCCn1sccc1=O", "note": "[OIT, N-n-octyl isothiazolin-3-one]", "values": [
      {"measurement": "Actual % Weight Loss", "value": "3.47% and 4.516% and 4.992% and 5.465%"}
    ]}
  ]
}
